Reference: US11814688B2, “Markers for determining tumor hypoxia” (VIB VZW, priority 2015, dated 2023)
One block for each molecule: values may come before it.

Columns and labels:
[1] = target: recombinant purified Tet1 enzyme (Mus musculus, UniProt Q3URK3); test: DNA hydroxymethylation assay using purified TET enzyme at different O2 concentrations; conditions: conversion of 5mC to 5hmC on genomic DNA, 3 min reaction
HIFs = test: HIF stabilization and hypoxia response program (Western blot, RT-qPCR) in MCF7 cells; assay type: cell-based, human; conditions: IOX2 50 μM
Description: Cell culture: Cells were cultured as described in the Supplemental Experimental Procedures. […] Where indicated, IOX2 (50 μM) or dimethyl α-ketoglutarate (2 mM) were added to fresh culture medium, using an equal volume of carrier (DMSO) as control for IOX2. Cells were plated at a density tailored to reach 80-95% confluence at the end of the treatment. Fresh medium was added to the cells just before the hypoxia exposure. For glutamine-free culture experiments, dialysed FBS was added to glutamine-free DMEM, and supplemented with glutamine (4 mM) for control. Extraction of DNA, RNA, proteins or metabolites was done 24 hours after the start of treatment, unless indicated otherwise. […]
RT-qPCR: For RNA extractions, cell culture medium was removed, TRIzol (Life Technologies) added and processed according to guidelines. […] Thermal cycling and fluorescence detection were done on a LightCycler 480 Real-Time PCR System (Roche), and differential expression calculated using the ΔΔCt method (Schmittgen and Livak, 2008). […]
TET mRNA concentrations and hypoxia marker gene induction: mRNA concentration analysis and statistics: Ct values were determined for each sample and gene of interest in technical duplicates, and normalized according to the corresponding amplification efficiency. […] Concentrations were expressed as averages of at least 5 independent biological replicates. […]

PHDs = conditions: cited from earlier work
MCF7 cells = test: LC/MS analysis of global 5hmC levels in MCF7 cells; assay type: cell-based, human; conditions: 24 hours
[2] = test system: breast tumors of MMTV-PyMT mice; test: sFlk1 overexpression by hydrodynamic plasmid injection in MMTV-PyMT mice; assay type: in vivo, mouse
Description: Murine cancer models: Animal experiments received local ethical approval (P098/2014). Animals were intercrossed and maintained as described in Supplemental Experimental Procedures. Mammary tumors were harvested at 16 weeks from Tg(MMTV-PyMT) and Tg(MMTV-PyMT); Phd2−/+ mice. For Flk1-overexpression studies, tumors allowed to develop for 11 weeks. Subsequently, 2.5 μg of plasmid (sFlk1-overexpressing or empty p156RRL2 vector) per gram of mouse body weight was introduced in the blood stream using hydrodynamic injections (Liu et al., 1999). sFlk1 overexpression was monitored at 4 days after injection and at sacrifice ([…]), by eye bleeds followed by an enzyme-linked immunosorbent assay for sFlk1 (R&D Systems, Abingdon, UK) in blood plasma. At 12 weeks of age, mice were sacrificed and mammary tumors harvested blinded for treatment. For the Phd2^+/− experiments, male Tg(MMTV-PyMT) FVB mice were intercrossed with female Phd2^−/+ mice, yielding litters of which half have either a Tg(MMTV-PyMT) genotype or a Tg(MMTV-PyMT); Phd2^−/+ genotype. For the Phd2^wt/fl experiments, male Tg(MMTV-PyMT) FVB mice were intercrossed with female Tie2-cre; Phd2^wt/fl mice as described (Kuchnio et al 2015), yielding litters of which half have either a Tie2-cre; Tg(MMTV-PyMT); Phd2^wt/wt genotype or a Tie2-cre; Tg(MMTV-PyMT); Phd2^−/+ genotype. At 16 weeks of age, female mice were sacrificed and mammary tumors harvested.
Targeted deep BS-seq: As no murine capture kit was available for targeted BSseq, a specific ampliconBS was developed for a set of 15 tumor suppressor gene promoters and 5 oncogene promoters. More specifically, DNA was bisulfite-converted using the Imprint DNA modification kit and amplified using the MegaMix Gold 2× mastermix and validated primer pairs. Per sample, PCR products were mixed to equimolar concentrations, converted into sequencing libraries using the NEBNext DNA library prep master mix set and sequenced to a depth of ˜500×. Mapping and quantification were done as described for SeqCapEpi. The average and variance of methylation level M values in normal mammary glands were used as baseline, and amplicons displaying over 3 standard deviations more methylation (FDR-adjusted P<0.05) than this baseline were called as hypermethylated. At least 9 different tumors, each from different animals, were profiled per genotype or treatment, and differences in HM frequencies between sets of tumors were assessed using Mann-Whitney's U-test.
Immunofluorescence staining: To mark hypoxic areas, mice were injected with pimonidazole (60 mg/kg, Hypoxyprobe, Massachusetts, USA) i.p. 1 hour before sacrifice. Tumors were harvested, fixed in formaldehyde and embedded in paraffin using standard procedures. Slides were deparafinated and rehydrated 2 xylene baths (5 minutes), followed by 5 times 3 minutes in EtOH baths at decreasing concentrations (100%, 96%, 70%, 50% and water) and a 3 minute Tris-buffered saline (TBS; 50 mM Tris, 150 mM NaCl, pH 7.6) bath. The following antibodies were used for immunofluorescence staining: primary antibodies were FITC-conjugated mouse anti-pimonidazole (HP2-100, Hydroxyprobe), rabbit anti-5hmC (39791, Active Motif), rat anti-polyoma middle T (AB15085, Abcam), rat anti-CD31 (557355, BD Biosciences), rat anti-CD45 (553076, BD Biosciences), rabbit anti-Ki67 (AB15580, Abcam) and mouse anti-pan cytokeratin (C2562, Sigma). […]

Sequence of recombinant purified Tet1 enzyme (Q3URK3 1367-2039 limits assumed): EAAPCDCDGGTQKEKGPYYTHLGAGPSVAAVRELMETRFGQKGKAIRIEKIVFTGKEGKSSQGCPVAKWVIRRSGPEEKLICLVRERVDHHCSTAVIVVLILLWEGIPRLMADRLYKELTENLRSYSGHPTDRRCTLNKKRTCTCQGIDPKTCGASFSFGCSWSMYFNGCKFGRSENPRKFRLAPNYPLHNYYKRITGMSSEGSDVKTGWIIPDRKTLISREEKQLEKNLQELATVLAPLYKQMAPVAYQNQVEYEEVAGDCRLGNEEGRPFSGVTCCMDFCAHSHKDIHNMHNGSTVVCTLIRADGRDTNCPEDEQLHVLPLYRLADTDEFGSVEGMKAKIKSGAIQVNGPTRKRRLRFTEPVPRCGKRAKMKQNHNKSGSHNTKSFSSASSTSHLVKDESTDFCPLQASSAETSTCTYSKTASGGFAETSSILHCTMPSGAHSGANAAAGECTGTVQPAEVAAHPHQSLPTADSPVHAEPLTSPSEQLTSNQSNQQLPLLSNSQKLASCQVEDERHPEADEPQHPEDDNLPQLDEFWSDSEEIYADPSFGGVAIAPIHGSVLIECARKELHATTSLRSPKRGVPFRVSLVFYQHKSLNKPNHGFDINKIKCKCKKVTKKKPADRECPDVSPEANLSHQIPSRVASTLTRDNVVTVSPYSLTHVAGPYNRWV

Km of Tet1 for oxygen [1]: ~0.3 % O2
Molecule: O=O [oxygen]

Molecule: O=C(O)CNC(=O)c1c(O)c2ccccc2n(Cc2ccccc2)c1=O [IOX2]
HIF stabilization and activation of the hypoxia response program (HIFs): sufficient to stabilize HIFs and activate the hypoxia response program
specificity for PHDs over other αKG-dependent dioxygenases (PHDs): high specificity
changes in global 5hmC levels (MCF7 cells; IOX2 50 μM, carrier DMSO as control): no changes

Molecule: COC(=O)CCC(=O)C(=O)OC [αKG, dimethyl α-ketoglutarate]
changes in global 5hmC levels (MCF7 cells; dimethyl α-ketoglutarate 2 mM added to medium): Neither of these conditions however altered 5hmC levels

B1: sFlk1: soluble Flk1, VEGF inhibitor, overexpressed from a hydrodynamically injected plasmid (protein, UniProt P35918 20-762, looked up)
extracellular domain: ASVGLPGDFLHPPKLSTQKDILTILANTTLQITCRGQRDLDWLWPNAQRDSEERVLVTECGGGDSIFCKTLTIPRVVGNDTGAYKCSYRDVDIASTVYVYVRDYRSPFIASVSDQHGIVYITENKNKTVVIPCRGSISNLNVSLCARYPEKRFVPDGNRISWDSEIGFTLPSYMISYAGMVFCEAKINDETYQSIMYIVVVVGYRIYDVILSPPHEIELSAGEKLVLNCTARTELNVGLDFTWHSPPSKSHHKKIVNRDVKPFPGTVAKMFLSTLTIESVTKSDQGEYTCVASSGRMIKRNRTFVRVHTKPFIAFGSGMKSLVEATVGSQVRIPVKYLSYPAPDIKWYRNGRPIESNYTMIVGDELTIMEVTERDAGNYTVILTNPISMEKQSHMVSLVVNVPPQIGEKALISPMDSYQYGTMQTLTCTVYANPPLHHIQWYWQLEEACSYRPGQTSPYACKEWRHVEDFQGGNKIEVTKNQYALIEGKNKTVSTLVIQAANVSALYKCEAINKAGRGERVISFHVIRGPEITVQPAAQPTEQESVSLLCTADRNTFENLTWYKLGSQATSVHMGESLTPVCKNLDALWKLNGTMFSNSTNDILIVAFQNASLQDQGDYVCSAQDKKTKKRHCLVKQLIILERMAPMITGNLENQTTTIGETIEVTCPASGNPTPHITWFKDNETLVEDSGIVLRDGNRNLTIRRVRKEDGGLYTCQACNVLGCARAETLFIIEGAQEKTNLE
modifications: extracellular domain
tumor hypoxia (hypoxic area) ([2]; after sFlk1 treatment, 20% in control): 47%
TSGs hypermethylated relative to control in at least one out of 24 hypoxic tumors ([2]; deep BS-sequencing, panel of 15 TSG promoters): 10 out of 15
hypermethylation of oncogene promoters ([2]; deep BS-sequencing, sFlk-treated tumors): failed to display the same increase
increase in plasma sFlk1 concentrations ([2]; during 3 weeks after hydrodynamic injection of sFlk1-expressing plasmid, versus empty plasmid): > 11 fold
reduction in vessel density ([2]; tumor vasculature, sFlk1-treated mice): 42±10%
